Source: ChEMBL document CHEMBL4480376, “Studies on spiro[4.5]decanone prolyl hydroxylase domain inhibitors” (Medchemcomm, 2019)
pIC50: −log10 of the molar value. The source made the active and inactive calls. The rule behind the calls is not given here.

Tests used:
[1] = target: Egl nine homolog 1 (Homo sapiens) (UniProt Q9GZT9); experiment: Inhibition of N-terminal His6-tagged truncated PHD2 (181 to 426 residues) (unknown origin) expressed in Escherichia coli BL21 DE3 using H1F1-alpha NODD as substrate preincubated for 15 mins followed by substrate addition and measured after 15 mins by mass spectrometry
Chain of Egl nine homolog 1 (Homo sapiens) (Q9GZT9 2-426 limits assumed): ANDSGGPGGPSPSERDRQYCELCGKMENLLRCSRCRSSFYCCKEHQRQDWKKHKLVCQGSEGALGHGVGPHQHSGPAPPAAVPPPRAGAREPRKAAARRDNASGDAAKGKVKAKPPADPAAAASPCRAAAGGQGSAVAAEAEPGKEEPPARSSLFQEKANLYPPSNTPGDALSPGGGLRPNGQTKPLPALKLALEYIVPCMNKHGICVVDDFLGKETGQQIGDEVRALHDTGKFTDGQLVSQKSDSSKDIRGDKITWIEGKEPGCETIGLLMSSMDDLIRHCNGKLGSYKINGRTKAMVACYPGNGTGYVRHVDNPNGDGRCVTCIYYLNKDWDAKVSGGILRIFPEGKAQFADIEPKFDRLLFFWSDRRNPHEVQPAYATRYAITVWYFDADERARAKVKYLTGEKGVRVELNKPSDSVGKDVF

[2] = target: Egl nine homolog 1 (Homo sapiens) (UniProt Q9GZT9); experiment: Inhibition of N-terminal His6-tagged truncated PHD2 (181 to 426 residues) (unknown origin) expressed in Escherichia coli BL21 DE3 using H1F1-alpha CODD as substrate preincubated for 15 mins followed by substrate addition and measured after 15 mins by mass spectrometry
[3] = target: T1, Lysine-specific demethylase 4A (Homo sapiens, UniProt O75164); experiment: Inhibition of KDM4A (unknown origin) using H3 K9Me3 (1 to 15 residues) as substrate
T1 sequence (O75164 whole entry): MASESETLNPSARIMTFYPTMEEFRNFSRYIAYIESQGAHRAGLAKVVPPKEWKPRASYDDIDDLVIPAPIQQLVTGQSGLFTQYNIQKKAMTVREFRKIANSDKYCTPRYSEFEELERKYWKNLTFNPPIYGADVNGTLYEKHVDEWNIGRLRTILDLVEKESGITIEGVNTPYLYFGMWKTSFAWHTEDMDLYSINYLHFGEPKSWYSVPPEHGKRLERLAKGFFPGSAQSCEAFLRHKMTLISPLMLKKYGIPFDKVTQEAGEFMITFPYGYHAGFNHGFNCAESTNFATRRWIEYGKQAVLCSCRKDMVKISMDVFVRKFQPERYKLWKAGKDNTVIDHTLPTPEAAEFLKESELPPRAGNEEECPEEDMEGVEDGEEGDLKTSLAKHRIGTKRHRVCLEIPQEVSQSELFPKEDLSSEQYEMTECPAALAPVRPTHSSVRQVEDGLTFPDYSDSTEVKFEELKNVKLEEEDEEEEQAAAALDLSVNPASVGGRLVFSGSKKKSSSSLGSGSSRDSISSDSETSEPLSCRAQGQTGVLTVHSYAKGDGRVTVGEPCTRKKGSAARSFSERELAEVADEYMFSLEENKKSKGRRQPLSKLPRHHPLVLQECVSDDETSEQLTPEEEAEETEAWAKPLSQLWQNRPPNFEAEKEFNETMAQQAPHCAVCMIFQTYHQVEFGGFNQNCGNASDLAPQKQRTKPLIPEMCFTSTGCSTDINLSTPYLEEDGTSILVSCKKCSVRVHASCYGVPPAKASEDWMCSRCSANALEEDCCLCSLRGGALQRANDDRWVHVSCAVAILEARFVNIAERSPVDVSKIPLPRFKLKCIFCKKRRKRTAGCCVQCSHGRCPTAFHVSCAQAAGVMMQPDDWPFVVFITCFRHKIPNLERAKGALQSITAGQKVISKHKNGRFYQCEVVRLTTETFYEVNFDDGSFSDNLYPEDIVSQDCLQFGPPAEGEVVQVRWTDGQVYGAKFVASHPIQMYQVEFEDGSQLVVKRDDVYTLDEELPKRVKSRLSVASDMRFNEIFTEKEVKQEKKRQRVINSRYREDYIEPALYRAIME

[4] = Inhibition of FIH (unknown origin) using HIF-1alpha CAD (D788 to L822 residues) as substrate; parameters: species or system Homo sapiens

O=C(NCc1ccc(-c2ccccc2)cc1)C1CCN(Cc2ncccc2O)CC1
inhibition [1]: inactive | inhibition [2]: inactive

Cc1cccnc1CN1CCC2(CC1)NC(=O)N(c1ccc(-c3ccccc3)cc1)C2=O
pIC50 [3]: < 4.60 | pIC50 [4]: < 4.60

Cn1ccnc1CN1CCC2(CC1)C(=O)N(c1ccc(-c3ccccc3)cc1)C(=O)N2c1ncccn1
pIC50 [3]: < 4.60 | pIC50 [4]: < 4.60

COc1ccnc(N2C(=O)N(c3ccc(-c4ccccc4)cc3)C(=O)C23CCN(Cc2ncccc2C)CC3)n1
pIC50 [3]: < 4.60 | pIC50 [4]: 4.67

O=C(Nc1ccc(-c2ccccc2)cc1)C1CCN(Cc2ncccc2O)CC1
inhibition [1]: inactive | inhibition [2]: inactive

O=C1N(c2ccc(-c3ccccc3)cc2)C(=O)C2(CCN(Cc3ccccc3O)CC2)N1c1ncccn1
pIC50 [3]: 4.91 | pIC50 [4]: < 4.60

Cc1cccnc1CN1CCC(C(=O)NCc2ccc(-c3ccccc3)cc2)CC1
inhibition [1]: inactive | inhibition [2]: inactive

O=C(Nc1ccc(-c2ccccc2)cc1)C1CCCN(Cc2ncccc2O)C1 (centres undefined)
inhibition [1]: inactive | inhibition [2]: inactive

O=C1N(c2ccc(-c3ccccc3)cc2)C(=O)C2(CCNCC2)N1c1ncccn1
pIC50 [3]: < 4.60 | pIC50 [4]: < 4.60

O=C1N(c2ccc(-c3ccccc3)cc2)C(=O)C2(CCN(Cc3ncc[nH]3)CC2)N1c1ncccn1
pIC50 [3]: < 4.60 | pIC50 [4]: < 4.60

Cc1cccnc1CN1CCC2(CC1)C(=O)N(c1ccc(-c3ccccc3)cc1)C(=O)N2c1ncccn1
pIC50 [4]: < 4.60

O=C1N(c2ccc(-c3ccccc3)cc2)C(=O)C2(CCN(Cc3cccs3)CC2)N1c1ncccn1
pIC50 [3]: < 4.60 | pIC50 [4]: < 4.60

Cn1ccnc1CN1CCC2(CC1)NC(=O)N(c1ccc(-c3ccccc3)cc1)C2=O
pIC50 [3]: < 4.60 | pIC50 [4]: < 4.60

COc1cccc(CN2CCC3(CC2)C(=O)N(c2ccc(-c4ccccc4)cc2)C(=O)N3c2ncccn2)n1
pIC50 [3]: < 4.60 | pIC50 [4]: < 4.60

Cc1cccnc1CN1CCC2(CC1)C(=O)N(c1ccc(-c3ccccc3)cc1)C(=O)N2c1cc(C(=O)O)ccn1
pIC50 [3]: < 4.60 | pIC50 [4]: < 4.60

O=C(NCc1ccc(-c2ccccc2)cc1)C1CCN(Cc2ccccc2O)CC1
inhibition [1]: inactive | inhibition [2]: inactive

Cc1cccnc1CN1CCCC(C(=O)Nc2ccc(-c3ccccc3)cc2)C1 (centres undefined)
inhibition [1]: inactive | inhibition [2]: inactive

O=C(Nc1ccc(-c2ccccc2)cc1)C1CCCN(Cc2ccccc2O)C1 (centres undefined)
inhibition [1]: inactive | inhibition [2]: inactive

Cc1cccnc1CN1CCC(C(=O)Nc2ccc(-c3ccccc3)cc2)CC1
inhibition [1]: inactive | inhibition [2]: inactive

O=C(Nc1ccc(-c2ccccc2)cc1)C1CCN(Cc2ccccc2O)CC1
inhibition [1]: inactive | inhibition [2]: inactive
